Experimental data as given in patent US7897574B2, “Pharmaceutical composition for treating haemorrhagic shock and its consecutive symptoms” (Ikaria Development Subsidiary Two LLC, priority 2005, dated 2011).

Tests used:
[1] = biological target: T1, recombinant human VE-cadherin FC fusion protein (Homo sapiens, UniProt P33151); test: ELISA: binding of FLAG-tagged peptide to coated VE-cadherin; details: VE-cadherin coated 8 nM/ml
T1 construct: purchased R&D Systems, Minneapolis
Excerpt: We have developed a modified ELISA working with the same principles described by others, but the purpose of the herein described ELISA is not to quantify fibrin degradation products, but to search for proteins, peptides or compounds which interfere with the binding of the Bbeta15-42 sequence and the VE-cadherin. […] Into this system one can introduce any other additional substance and measure if this substance inhibits VE-cadherin/Bbeta15-42 binding.
In detail, 96 well protein immobilizer plates (Exiqon, Vedbaek, DK) were coated with recombinant human VE-cadherin FC fusion protein (8 nM/ml; R&D Systems, Minneapolis) in PBS and were left overnight at 4° C. Plates were then washed and incubated with peptide Bβ15-42 ([…]) tagged with a FLAG-sequence (DYKDDDDK) at the C-terminus of the peptide or with a FLAG-tagged random peptide ([…]) at a concentration of 0-80 μMol/ml. After washing, bound FLAG-tagged peptide was detected by incubation with a peroxidase-labelled anti-FLAG antibody (Sigma, St. Louis, USA) and chromogenic substrate. Optical density was determined by an ELISA plate reader set at a wavelength of 450 nm. Data represent the mean of three independent experiments, each performed in triplicates.

[2] = system: human umbilical vein endothelial cells (HUVEC); test: Inhibition of the release of interleukin-6 from endothelial cells; format: cell-based; details: 4 hrs
Protocol: In addition we have identified a specific assay for the determination of the claimed activity of the peptides, which consists of measurement of the inhibition of the release of interleukin-6 from endothelial cells. […] This assay is therefore also part of the invention.
96-well cell culture plates were coated with 1% gelatine. Into each well, approx. 23,000 human umbilical vein endothelial cells (HUVEC) in 200 μl of medium were pipetted. The HUVECs were taken from passage 4 form a pool of four different donors. The medium used for dilution was standard medium with 10% FCS, ECGS in Iscove's modified Dulbecco medium (Petzelbauer et al., J Immunol. 151:5062-5072, 1993). Within approx. 18 hrs at 37° C. in an incubator, a confluent cell monolayer is formed. The supernatant was removed and replaced with medium containing either NDSK-II alone or NDSK-II plus peptide Bβ15Δ([…]).
The total final volume was 200 μl. After 4 hrs of incubation at 37° C. under 5% CO2, the cell culture supernatant was again removed and centrifuged for 10 min at 4° C. at 3000 U/min. The concentration of interleukin-6 (IL-6) was measured using a commercial assay (IL-6 Quantikine Immonuassay (R&D Sytems; Catalog#: D6050; Lot: 231361). Calibration was done according to the standard protocol supplied by the assay manufacturer with various dilutions of recombinant IL-6 and medium. Readings of the optical density were taken at a wavelength of 450 nm with a reference wavelength of 550 nm.

[3] = system: Domestic male landrace pigs; test: Hemorrhagic shock in domestic pigs; format: in vivo, pig
Protocol: Domestic male landrace pigs weighing 20-35 kg were fed a standard diet and received water ad libitum. All procedures were performed in concurrence with the AAALAC guidelines and according to the Guide for the Care of Laboratory Animals (Department of Health and Human Services, National Institutes of Health, Publication Nr. 86-23). Pigs were premedicated with azaperon (4 mg/kg). The ear vein was cannulated and the anesthetic propofol was applied. The animals were fully instrumented and equlibrated for 1 hr in order to recieve a stable baseline. Subsequently, the animals (n=16) were exsanguinated until a mean arterial pressure of 40 mm Hg was achieved. They were kept at this level constituting a hemorrhagic shock for 1 hr. After this time the lost blood volume was resubstituted with shed blood and salt solutions (cristalloids). In addition the animals received a bolus dose of the peptide Bβ15-42 (n=8) or a random sequence peptide (n=8) in a dose of […] each as a single intravenous bolus. During the ensuing reperfusion period over the duration of 5 hrs, Horrowitz index (measuring blood oxigenation), PEEP (positive end-expiratory pressure in mm Hg) and cardiac ejection volume were determined at various timepoints.
In the following tables the following timepoints were used:
• Timepoint 1: 1 hr before hemorrhagic shock • Timepoint 2: during hemorrhagic shock • Timepoint 3: 1 hr after the start of reperfusion • Timepoint 4: 3 hrs after the start of reperfusion • Timepoint 5: 5 hrs after the start of reperfusion

[4] = in vivo, ischemia/reperfusion; WO 02/48180; cited from earlier work
[5] = Timepoint 1: 1 hr before hemorrhagic shock (before dosing)
[6] = Timepoint 2: during hemorrhagic shock (before dosing)
[7] = Timepoint 3: 1 hr after the start of reperfusion, 2.4 mh/kg single intravenous bolus
[8] = Timepoint 4: 3 hrs after the start of reperfusion, 2.4 mh/kg single intravenous bolus
[9] = Timepoint 5: 5 hrs after the start of reperfusion, 2.4 mh/kg single intravenous bolus

T1 sequence (P33151 with tags, fused parts or gaps limits assumed): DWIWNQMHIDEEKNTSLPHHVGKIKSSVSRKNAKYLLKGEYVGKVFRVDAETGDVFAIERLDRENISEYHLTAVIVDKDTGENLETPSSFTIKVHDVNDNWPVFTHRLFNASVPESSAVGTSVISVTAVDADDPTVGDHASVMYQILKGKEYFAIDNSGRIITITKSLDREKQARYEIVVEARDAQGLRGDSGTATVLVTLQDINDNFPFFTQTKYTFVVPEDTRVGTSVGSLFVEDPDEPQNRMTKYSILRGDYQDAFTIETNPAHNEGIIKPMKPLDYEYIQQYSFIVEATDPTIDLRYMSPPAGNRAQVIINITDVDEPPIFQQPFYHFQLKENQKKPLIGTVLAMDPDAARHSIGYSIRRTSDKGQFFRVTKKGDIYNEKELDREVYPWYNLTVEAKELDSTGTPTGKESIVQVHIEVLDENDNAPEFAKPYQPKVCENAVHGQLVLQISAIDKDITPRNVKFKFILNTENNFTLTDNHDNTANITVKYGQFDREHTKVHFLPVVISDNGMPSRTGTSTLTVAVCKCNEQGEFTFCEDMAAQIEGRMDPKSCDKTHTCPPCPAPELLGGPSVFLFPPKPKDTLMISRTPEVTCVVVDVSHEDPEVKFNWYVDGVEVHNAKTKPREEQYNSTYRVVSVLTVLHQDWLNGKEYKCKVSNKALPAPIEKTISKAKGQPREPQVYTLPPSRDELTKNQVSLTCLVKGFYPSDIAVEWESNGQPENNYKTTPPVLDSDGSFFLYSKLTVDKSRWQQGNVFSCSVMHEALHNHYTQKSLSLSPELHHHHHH

**Q.** Which “binding to VE-cadherin, optical density (450 nm), mean” value (“binding to VE-cadherin” for short) ([1]; FLAG-tagged peptide 0.23 μM/ml) does the source give for “15-42 FLAG: peptide Bβ15-42 (GHRPLDKKREEAPSLRPAPPPISGGGYR) tagged with a FLAG-sequence (DYKDDDDK) at the C-terminus (GHRPLDKKREEAPSLRPAPPPISGGGYRDYKDDDDK)” here?
**A.** 0.01

**Q.** And the “binding to VE-cadherin” value ([1]; FLAG-tagged peptide 0.7 μM/ml)?
**A.** 0.02

**Q.** And the “binding to VE-cadherin” value ([1]; FLAG-tagged peptide 2.3 μM/ml)?
**A.** 0.08

**Q.** What about the “binding to VE-cadherin” value ([1]; FLAG-tagged peptide 7 μM/ml) of the same substance?
**A.** 0.33

**Q.** And the “binding to VE-cadherin” value ([1]; FLAG-tagged peptide 14 μM/ml)?
**A.** 0.92

**Q.** What about the “binding to VE-cadherin” value ([1]; FLAG-tagged peptide 21 μM/ml) of the same substance?
**A.** 1.3

**Q.** What about the “binding to VE-cadherin” value ([1]; FLAG-tagged peptide 35 μM/ml) of the same substance?
**A.** 1.5

**Q.** And the “binding to VE-cadherin” value ([1]; FLAG-tagged peptide 46 μM/ml)?
**A.** 1.93

**Q.** And the “binding to VE-cadherin” value ([1]; FLAG-tagged peptide 70 μM/ml)?
**A.** 2.1

**Q.** Which IL-6 concentration ([2]; 0.3 μg/ml NDSK-II + 10 μg/ml peptide) does the source give for “GHRPLDKKREEAPSLRPAPPPISGGGYR [peptide Bβ15-42, peptide matching amino acids 15-42 of the Bβ chain of human fibrin]” here?
**A.** 15 ± 2 pg/mL

**Q.** And the IL-6 concentration ([2]; 3 μg/ml NDSK-II + 10 μg/ml peptide)?
**A.** 12 ± 3(p < 0.05 cmpd with pg/ml

**Q.** And the IL-6 concentration ([2]; 30 μg/ml NDSK-II + 10 μg/ml peptide)?
**A.** 13 ± 1(p < 0.05 cmpd with pg/ml

**Q.** And the “EV (cardiac ejection volume)” value [3, 5]?
**A.** 44 ± 2 mL

**Q.** And the “Horrowitz Index (blood oxigenation)” value [3, 5]?
**A.** 465 +/− 20

**Q.** And the “PEEP (positive end-expiratory pressure)” value [3, 5]?
**A.** 4 +/− 0.1 mmHg

**Q.** What about the “EV (cardiac ejection volume)” value [3, 6] of the same substance?
**A.** 6 ± 1 mL

**Q.** And the “Horrowitz Index (blood oxigenation)” value [3, 6]?
**A.** 450 +/− 20

**Q.** And the “PEEP (positive end-expiratory pressure)” value [3, 6]?
**A.** 4 +/− 0.1 mmHg

**Q.** And the “EV (cardiac ejection volume)” value [3, 7]?
**A.** 31 ± 4 mL

**Q.** What about the “Horrowitz Index (blood oxigenation)” value [3, 7] of the same substance?
**A.** 420 +/− 10

**Q.** And the “PEEP (positive end-expiratory pressure)” value [3, 7]?
**A.** 4.1 +/− 0.2 mmHg

**Q.** What about the “EV (cardiac ejection volume)” value [3, 8] of the same substance?
**A.** 32 ± 3 mL

**Q.** What about the “Horrowitz Index (blood oxigenation)” value [3, 8] of the same substance?
**A.** 410 +/− 20

**Q.** What about the “PEEP (positive end-expiratory pressure)” value [3, 8] of the same substance?
**A.** 4.2 +/− 0.3 mmHg

**Q.** And the “EV (cardiac ejection volume)” value [3, 9]?
**A.** 37 ± 4 mL

**Q.** What about the “Horrowitz Index (blood oxigenation)” value [3, 9] of the same substance?
**A.** 420 +/− 30

**Q.** And the “PEEP (positive end-expiratory pressure)” value [3, 9]?
**A.** 4.3 +/− 0.2 mmHg

**Q.** And the “myocardial infarct size (in words)” value [4]?
**A.** reduces myocardial infarct sizes
